One assay addresses HLA-B1301 (Homo sapiens, UniProt P01889, A65T/A93T/A95T/D138N/D201E/D98Y/E176V/E204Q/E69M/E70A/G107R/K202T/L105A/L119I/N104T/N87E/Q94N/R106L/R155S/R169L/R180L/S101N/S121R/S35A/S48T/T118I/V127L/V36M/Y140L/Y91S). The assay can be described thus: Competitive peptide binding assay, CIR-B1301. The conditions noted are these: HMy2.CIR-B1301 cells, reference Cy5-[…], class from inhibition at 5 and 15 μM, flow cytometry MFI; read-out: Binding affinity with HLA-B1301. As to the method: (§1) Then, competitive peptide binding assays were performed.

For the next assay, the target named is HLA-B1501 (Homo sapiens, UniProt P01889, A329T/A93T/A95T/C349S/D201E/D98Y/E187L/E204Q/E69M/E70A/K202T/N87E/Q94N/R155S/R180W/S121R/S35A/S48A/V306I/V36M/Y140S/Y91S). Kind of assay: Competitive peptide binding assay, CIR-B1501. The following applies: HMy2.CIR-B1501 cells, reference Cy5-[…], class from inhibition at 5 and 15 μM, flow cytometry MFI; read-out: Binding affinity with HLA-B1501. As to the method: as §1

The next assay concerns the target HLA-B5801 (Homo sapiens, UniProt P01889, A329T/C349S/D201E/D98Y/E176V/E187L/E204Q/E69T/G107R/I218V/I90N/K202T/L105A/L119I/N104I/N87E/Q89R/Q94S/R106L/R155S/R180L/R86G/S101N/S121R/S35A/S48A/T118I/V127L/V306I/V36M/Y140S/Y91M). The assay can be described thus: Competitive peptide binding assay, CIR-B5801. The conditions noted are these: HMy2.CIR-B5801 cells, reference Cy5-[…], class from inhibition at 5 and 15 μM, flow cytometry MFI; read-out: Binding affinity with HLA-B5801. As to the method:
as §1

The target in a further assay is HLA-B3501 (Homo sapiens, UniProt P01889, A329T/A93T/A95T/C349S/D201E/D98Y/E176V/E187L/E204Q/E69T/I218V/K202T/L119I/Q94N/R155S/R180L/S121R/S35A/S48A/T118I/V127L/V306I/V36M/Y140S/Y91F). The assay can be described thus: Competitive peptide binding assay, CIR-B3501. The following applies: HMy2.CIR-B3501 cells, reference Cy5-[…], class from inhibition at 5 and 15 μM, flow cytometry MFI; read-out: Binding affinity with HLA-B3501. As to the method:
as §1

In another assay the target is HLA-B4801 (Homo sapiens, UniProt P01889, A269T/A93T/A95T/D138N/D98Y/E176V/N87E/Q94N/R180L/T167S/W171L/Y91S). The assay can be described thus: Competitive peptide binding assay, CIR-B4801. The following applies: HMy2.CIR-B4801 cells, reference Cy5-[…], class from inhibition at 5 and 15 μM, flow cytometry MFI; read-out: Binding affinity with HLA-B4801. On the procedure:
as §1

In the next assay the target is HLA-B1502 (Homo sapiens, UniProt P01889, A329T/A93T/A95T/C349S/D201E/D98Y/E187L/E204Q/E69M/E70A/H137Y/K202T/L119I/Q94N/R155S/R180L/S121R/S35A/S48A/T118I/V306I/V36M/Y140S/Y91S). The assay can be described thus: Competitive peptide binding assay, CIR-B1502. The conditions noted are these: HMy2.CIR-B1502 cells, reference Cy5-[…], class from inhibition at 5 and 15 μM, flow cytometry MFI; read-out: Binding affinity with HLA-B1502. As to the method:
as §1

The next assay concerns the target HLA-B1302 (Homo sapiens, UniProt P01889, A65T/A93T/A95T/D138N/D201E/D98Y/E176V/E204Q/E69M/E70A/G107R/K202T/L105A/L119W/N104T/N87E/Q94N/R106L/R155S/R169L/R180L/S101N/S121T/S35A/S48T/V127L/V36M/Y140L/Y91S). The assay can be described thus: Competitive peptide binding assay, CIR-B1302. The following applies: HMy2.CIR-B1302 cells, reference Cy5-MMWYWGPSL, class from inhibition at 5 and 15 μM, flow cytometry MFI; read-out: Binding affinity with HLA-B1302. As to the method:
as §1

Another assay has as its target HLA-B4001 (Homo sapiens, UniProt P01889, A65T/A93T/A95T/D138N/D98Y/E176V/E69K/N87E/Q56L/Q94N/R180L/S121R/S35A/S48T/T167S/V36M/W171L/Y33H/Y91S). The assay can be described thus: Competitive peptide binding assay, CIR-B4001. The following applies: HMy2.CIR-B4001 cells, reference Cy5-[…], class from inhibition at 5 and 15 μM, flow cytometry MFI; read-out: Binding affinity with HLA-B4001. On the procedure: as §1

In another assay the target is HLA-B4601 (Homo sapiens, UniProt P01889, A329T/A93R/C349S/D201E/E100V/E187L/E204Q/E69M/E70A/I90K/K202T/N87E/R155S/R180W/S121R/S35A/S48A/V306I/V36M/Y140S). Kind of assay: Competitive peptide binding assay, CIR-B4601. The conditions noted are these: for IC50: HMy2.CIR-B4601 cells, reference Cy5-[…], class from inhibition at 5 and 15 μM, flow cytometry MFI, read-out: Binding affinity with HLA-B4601; for inhibition at 5 µM: read-out: Inhibition % of Cy5-reference peptide binding, CIR-B4601, 5μM peptide; for inhibition at 15 µM: read-out: Inhibition % of Cy5-reference peptide binding, CIR-B4601, 15μM peptide. On the procedure:
as §1

For another assay, the target named is HLA-B5101 (Homo sapiens, UniProt P01889, A329T/A93T/A95T/C349S/D138N/D201E/D98Y/E187L/E204Q/E69T/G107R/I218V/K202T/L105A/L119W/N104I/Q94N/R106L/R155S/R180L/S101N/S121T/S35A/S48A/V306I/V36M/Y195H/Y91F). Kind of assay: Competitive peptide binding assay, CIR-B5101. The conditions noted are these: HMy2.CIR-B5101 cells, reference Cy5-[…], class from inhibition at 5 and 15 μM, flow cytometry MFI; read-out: Binding affinity with HLA-B5101. As to the method: as §1

Peptide text beside a SMILES is read from it.

Take `CC[C@H](C)[C@H](NC(=O)[C@H](C)NC(=O)[C@H](C)NC(=O)[C@H](CC(N)=O)NC(=O)CNC(=O)[C@H](CC(=O)O)NC(=O)[C@H](CCC(N)=O)NC(=O)[C@H](C)NC(=O)[C@@H](N)Cc1ccccc1)C(=O)O` [Epitope Y246] (H-FAQDGNAAI-OH; N-terminus and C-terminus assumed): the IC50 on HLA-B1301, at HLA-B1501, at HLA-B5801, on HLA-B3501, at HLA-B4801 and on HLA-B1502 was above 15 µM in each case. Besides, the IC50 on HLA-B1302 is above 15 µM.
For the molecule `CC[C@H](C)[C@H](NC(=O)[C@H](CC(=O)O)NC(=O)[C@H](CCCNC(=N)N)NC(=O)CNC(=O)[C@H](Cc1ccccc1)NC(=O)[C@H](CCC(N)=O)NC(=O)[C@H](CCC(N)=O)NC(=O)[C@H](Cc1ccccc1)NC(=O)[C@@H]1CCCN1C(=O)[C@@H](N)CC(C)C)C(=O)O` [Epitope Y282] (H-LPFQQFGRDI-OH; N-terminus and C-terminus assumed), the IC50 is above 15 µM on HLA-B1301, 5 to 15 µM on HLA-B1501, above 15 µM at HLA-B4801 and above 15 µM at HLA-B1502.
As for `C[C@H](NC(=O)[C@H](CO)NC(=O)[C@@H](N)CCCCN)C(=O)NCC(=O)N[C@@H](Cc1ccccc1)C(=O)N1CCC[C@H]1C(=O)N[C@@H](Cc1ccccc1)C(=O)N[C@@H](CC(N)=O)C(=O)N[C@@H](CCCCN)C(=O)N[C@@H](Cc1c[nH]c2ccccc12)C(=O)O` [Epitope Y306] (H-KSAGFPFNKW-OH; N-terminus and C-terminus assumed), the IC50 on HLA-B4001 is above 15 µM; on HLA-B1501 it was above 15 µM; at HLA-B4801, above 15 µM; on HLA-B1302, below 5 µM.
For the molecule `CC[C@H](C)[C@H](NC(=O)[C@H](C)NC(=O)CNC(=O)[C@@H](NC(=O)[C@H](Cc1ccc(O)cc1)NC(=O)[C@@H](NC(=O)[C@@H](N)CC(C)C)[C@@H](C)O)[C@@H](C)O)C(=O)N[C@@H](CCCCN)C(=O)N[C@@H](CC(C)C)C(=O)O` [Epitope Y243] (H-LTYTGAIKL-OH; N-terminus and C-terminus assumed), the IC50 on HLA-B1301 is above 15 µM; on HLA-B4601 it was below 5 µM; on HLA-B1501, above 15 µM; on HLA-B3501 it was above 15 µM; on HLA-B4801 it was above 15 µM; at HLA-B1502, above 15 µM. The inhibition at 5 µM on HLA-B4601 amounted to 77.3%. Moreover, the inhibition at 15 µM at HLA-B4601 worked out at 94%.
On to `CC(C)C[C@H](N)C(=O)N[C@H](C(=O)N[C@@H](CCCCN)C(=O)N1CCC[C@H]1C(=O)N[C@@H](CO)C(=O)N[C@@H](Cc1ccccc1)C(=O)N[C@@H](Cc1ccc(O)cc1)C(=O)N[C@H](C(=O)N[C@@H](Cc1ccc(O)cc1)C(=O)O)C(C)C)C(C)C` [Epitope Y125] (H-LVKPSFYVY-OH; N-terminus and C-terminus assumed), for which the IC50 was below 5 µM at HLA-B1501; 5 to 15 µM at HLA-B5801; above 15 µM on HLA-B4801; above 15 µM at HLA-B1502; above 15 µM on HLA-B1302.
For the molecule `CC(C)C[C@H](NC(=O)[C@H](CCC(=O)O)NC(=O)[C@H](CCCCN)NC(=O)[C@H](Cc1ccccc1)NC(=O)[C@H](CO)NC(=O)[C@@H](N)CC(C)C)C(=O)N[C@@H](CC(C)C)C(=O)N[C@H](C(=O)N[C@@H](Cc1ccc(O)cc1)C(=O)O)C(C)C` [Epitope Y142] (H-LSFKELLVY-OH; N-terminus and C-terminus assumed), the IC50 on HLA-B4001 was above 15 µM; at HLA-B1501, 5 to 15 µM; at HLA-B5801 it was below 5 µM; at HLA-B3501, above 15 µM; on HLA-B4801, above 15 µM; on HLA-B1502 it was above 15 µM.
In the case of `CSCC[C@H](NC(=O)[C@H](C)NC(=O)[C@H](CCC(=O)O)NC(=O)[C@H](Cc1ccc(O)cc1)NC(=O)[C@H](Cc1ccccc1)NC(=O)[C@H](CCC(=O)O)NC(=O)[C@@H]1CCCN1C(=O)[C@H](CCC(=O)O)NC(=O)[C@@H](N)Cc1c[nH]c2ccccc12)C(=O)O` [Epitope Y200] (H-WEPEFYEAM-OH; N-terminus and C-terminus assumed), the IC50 on HLA-B1301, on HLA-B1501, on HLA-B5801, at HLA-B3501, on HLA-B4801 and at HLA-B1302 was above 15 µM each time.
`CC(C)C[C@H](NC(=O)[C@H](CC(=O)O)NC(=O)[C@@H](NC(=O)[C@H](CC(=O)O)NC(=O)[C@@H](NC(=O)[C@H](Cc1c[nH]cn1)NC(=O)[C@H](CO)NC(=O)[C@H](CCC(=O)O)NC(=O)[C@H](C)N)C(C)C)[C@@H](C)O)C(=O)O` [Epitope Y198] (H-AESHVDTDL-OH; N-terminus and C-terminus assumed): the IC50 at HLA-B4601, on HLA-B5101, on HLA-B1501, on HLA-B5801, on HLA-B3501 and on HLA-B4801 was above 15 µM in each case. Also, the values for the IC50 at HLA-B1502 and on HLA-B1302 were above 15 µM and 5 to 15 µM, respectively.
Consider `CSCC[C@H](NC(=O)[C@H](CCCCN)NC(=O)CN)C(=O)N[C@@H](CCCCN)C(=O)N[C@@H](CC(=O)O)C(=O)N[C@@H](CC(C)C)C(=O)N[C@@H](CO)C(=O)N1CCC[C@H]1C(=O)N[C@@H](CCCNC(=N)N)C(=O)N[C@@H](Cc1c[nH]c2ccccc12)C(=O)O` [Epitope Y224] (H-GKMKDLSPRW-OH; N-terminus and C-terminus assumed), for which the IC50 on HLA-B1301 was above 15 µM; on HLA-B4601 it was above 15 µM; on HLA-B1501, above 15 µM; on HLA-B3501, above 15 µM; at HLA-B4801, 5 to 15 µM. The inhibition at 5 µM on HLA-B4601 was 32.3%. In addition, the inhibition at 15 µM at HLA-B4601 was 52.3%.

The values above are taken from publication PMC12133982, “Predominant T-cell epitopes of SARS-CoV-2 restricted by multiple prevalent HLA-B and HLA-C allotypes in Northeast Asia” (Frontiers in Immunology, 2025).
